Test results published in patent US20070111251A1, “Chemical address tags” (priority 2003, published 2007).

Columns and labels:
dsDNA = test: Fluorometric titration of styryl dyes with dsDNA in buffer solution; assay type: binding, Salmon; settings: for em^free / Øf^free: free dye; for fluorescence emission increase with DNA versus free compound: highest concentration of DNA tested, 50 μg mL^−1; for Øf^DNA: quantum yield with dsDNA; for Øf^free: quantum yield; for max: spectrophotometric properties of the styryl dyes; for em^DNA: with dsDNA
Protocol: In some embodiments, the synthesis of compounds B was achieved by refusing with the pyridine derivatives and iodomethane for 2 hours, and compound B crystallized out in ethyl acetate. The condensation with aldehydes (A) and compound B was performed by refusing with piperidine for 2 hours in EtOH. After cooling to room temperature, the crystallized compounds were filtered and washed with ethyl acetate. With these purified compounds, the fluorescence intensity change upon addition of DNA was tested.
With a series of concentrations of dsDNA (double stranded DNA) added to compound 1, a linear increase in the fluorescence intensities was observed. (FIG. 17). […] At the highest concentration of DNA tested (50 μg mL^−1), the fluorescence emission reached up to 13.3 times higher than that of the free compound. Briefly, FIGS. 18A-18C show the absorption and fluorescence spectra of compounds 1, 2, and 3 (Dye 1, 2, 3 [50 μM], dsDNA [50 μg mL^−1]). A blue shift of 17 nm in the emission wavelength upon DNA addition was observed, without a significant excitation wavelength shift. The structure of compound 1 includes a 2,4,5-trimethoxy group from the benzaldehyde moiety and a unique adamantyl pyridinium functionality.
Unless otherwise noted, starting materials and solvents were purchased from commercial suppliers, and used without purification. Ethanol (EtOH) and ethyl acetate (EA) from Acros Organics (Fisher Scientific, UK) were used as the reaction solvents without any prior purification. Salmon testes solid dsDNA, and phosphate buffered saline (PBS) (NaCl 120 mM, KCl 2.7 mM, and phosphate buffer 10 mM, pH=7.4 at 24° C.) were purchased from Sigma-Aldrich and needed no further purification. Fluorescence intensities were measured by a Jobin Yvon Horiba FluoroMAX-3 fluorimeter (Horiba Group, Kyoto, Japan) with a quartz cuvette cell (10 mm×10 mm×4.5 cm; Starna (Atascadero, Calif.). ^1H-NMR (200 MHz) spectra were determined on Gemini 200 spectrometer (Varian, Inc., Palo Alto, Calif.). Chemical shifts were reported in parts per million (ppm) relative to the line of a singlet at 2.50 ppm for DMSO-d6 and coupling constants (j) are in Hertz (Hz). The following abbreviations are used for spin multiplicity: s=singlet, d=doublet, t=triplet, m=multiplet, and b=broad. All dye products were identified by LC-MS from Agilent Technology (Palo Alto, Calif.), using a C18 column (20×4.0 mm), with 4 minutes elution using a gradient of 5-95% CH3CN (containing 1% acetic acid)-H2O (containing 1% acetic acid), with UV detector at %=400 nm and an electrospray ionization source.

[1] = test system: live UACC-62 human melanoma cells; test: Cell-based screening of extended styryl library: nuclear staining of live cells; settings: live UACC-62 cells; compounds 1-3 at 500 μM
Source text: In one preferred embodiment, an extended styryl dye library, composed of 855 compounds, was synthesized (See, Example 7) and screened for the subcellular localization in live […] human melanoma cells on glass bottom 96-well plates by the combinatorial library synthesis methods disclosed herein. […] The compounds were resynthesized on large scale for further study. (FIG. 16).
Therefore, both 2,4,5-trunethoxy groups and the adamantyl group are important in the specific interaction of compound 1 and DNA. The three related compounds 1, 2, and 3 were incubated in live UACC-62 human melanoma cells to compare their nuclear localization properties. (FIG. 19).

[2] = test system: live UACC-62 human melanoma cells; test: Organelle-binding test: subcellular localization of styryl library compounds by fluorescence microscopy; assay type: cell-based; parameters: key to experimentally determined localization (subscript): The subscript m indicates experimentally determined mitochondrial localization; The subscript o indicates experimentally determined non-mitochondrial localization; settings: for experimentally determined localization (subscript): mitochondrial vs non-mitochondrial, live UACC-62 cells; for representative localization: FIG. 5, live UACC-62 cells
Protocol: The synthesis was designed so that the reaction mixture can be used directly in biological screening; toxic catalysts (e.g., such as strong acids, bases, and metals) were avoided, and most of the low-boiling point solvents and catalysts (e.g., pyrrolidine) were removed during the microwave reaction, leaving only DMSO, a common solvent for biological sample preparation. In some embodiments, without further purification, the library compounds were incubated with live UACC-62 human melanoma cells growing on glass bottom 96-well plates, and the localizations of the different compounds in the cells were determined using an Axiovert (Carl Zeiss, Inc., Thornwood, N.Y.) microscope (λex=405, 490, and 570 nm; λem>510 nm) with a 100× Zeiss oil immersion objective. […] The images in FIG. 5 show cells stained with selected fluorescent compounds.
Unless otherwise noted in this example, the materials and solvents were obtained from commercial suppliers and were used without further purification. The plate reader used in this example was a Spectra Max Gemini XSF (Molecular Devices, Corp., Sunnyvale, Calif.). In preferred embodiments, for organelle-binding tests, UACC-62 melanoma cells were selected amongst a panel of 60 human cancer cell lines, because their well-spread morphology on glass made them ideally suited for imaging purposes as well as their relevance to biomedical research. (See e.g., R. H. Shoemaker et al., Development of human tumor cell line panels for use in disease oriented drug screening. In: Hall, T. ed., Prediction of Response to Anti-cancer Chemotherapy, New York N.Y.: Alan Liss, 265-286 [1988]).
In some of these embodiments, UACC-62 cells (obtained from the Developmental Therapeutics Program at the National Cancer Institute) were grown in RPMI medium supplemented with 10% fetal calf serum. For microscopy, cells were plated on 96 well tissue-culture plates (Falcon) overnight, in RPMI plus 10% fetal calf serum, at 37° C. in 5% CO2/95% air. Cells were incubated with compounds at an approximate concentration of 50 μM for 1 hour.
A Zeiss Axiovert 135M (Carl Zeiss, Inc., Thornwood, N.Y.) inverted fluorescence microscope outfitted with a FITC/TRITC multipass filter cube (Chroma Technology, Corp., Rockingham, Vt.) was used for screening and routine cell biological fluorescence imaging applications. In some embodiments, epifluorescence microscopy was performed using a Zeiss Axiovert epifluorescence microscope equipped with a 20× objective.
The library compounds, without further purification, were incubated with live UACC-62 human melanoma cells growing on glass bottom 96-well plates (Sigma-Aldrich Corp., St. Louis, Mo.), and the localizations of the different compounds in the cells were determined by an inverted fluorescence microscope (λex=405, 490, and 570 nm; λem>510 nm) at 1000× magnification. Based on their morphology and subcellular distribution, the localizations were ascribed to mitochondria, ER (endoplasmic reticulum), nucleoli, nuclear, and cytoplasmic staining patterns such as diffuse (based on the homogenous staining appearance and exclusion from the nucleus), granular (punctate staining pattern, generally associated with the cell margins) or vesicular (heterogeneous staining pattern, generally associated with the nuclear periphery). Localization studies were performed without a priori information of the compounds' molecular structures. It was possible to ascribe the localization of the compounds to nucleus or cytoplasm, as these organelles are clearly discernible with phase contrast optics. Similarly, it was possible to ascribe localization to nucleoli, as these structures appeared as the most prominent, phase-dense structures within the nucleus. Localization to mitochondria was based on the elongated, characteristic shape of these organelles, which stain positive with established mitochondrial-specific fluorescent probes, like […] or JC-1. (L. B. Chen, Methods Cell Bio., 29:103-123 [1989]). […]

COc1cc(OC)c(OC)cc1C=Cc1cc[n+](C23CC4CC(CC(C4)C2)C3)cc1.[Br-] [Compound 1, 2-[4-[5-(trimethyoxy)phenyl]-ethenyl-1-adamantyl]-4-methylpyridinium bromide]
blue shift in the emission wavelength upon DNA addition (dsDNA): 17 nm
emission wavelength (dsDNA): 583 nm
excitation wavelength (dsDNA): 413 nm
fluorescence intensity change upon addition of DNA (dsDNA): strong fluorescence increase
Øf^DNA/Øf^free (dsDNA): 13.3
em^free (dsDNA): 583 nm
fluorescence emission increase with DNA versus free compound (dsDNA): 13.3 fold
linear fluorescence response range (dsDNA; in PBS, without self-quenching or wavelength shifts): 0.05 to 100 µM
Øf^DNA (dsDNA): 0.0032
Øf^free (dsDNA): 0.00024
max (dsDNA): 413 nm
em^DNA (dsDNA): 566 nm
nuclear staining / nuclear localization in live cells [1]: clearly stains the nucleus of live cells more selectively

COc1cc(C=Cc2cc[n+](C34CC5CC(CC(C5)C3)C4)cc2)cc(OC)c1OC.[Br-] [Compound 2]
Øf^DNA/Øf^free (dsDNA): 4.3
em^free (dsDNA): 553 nm
fluorescence emission increase with DNA versus free compound (dsDNA): 4.3 fold
Øf^DNA (dsDNA): 0.022
Øf^free (dsDNA): 0.0051
max (dsDNA): 366 nm
em^DNA (dsDNA): 520 nm
nuclear staining / nuclear localization in live cells [1]: stronger fluorescence backgrounds and spread throughout the cytoplasm

COc1ccc(C=Cc2cc[n+](C34CC5CC(CC(C5)C3)C4)cc2)c(OC)c1OC.[Br-] [Compound 3]
Øf^DNA/Øf^free (dsDNA): 1.5
em^free (dsDNA): 491 nm
fluorescence emission increase with DNA versus free compound (dsDNA): 1.5 fold
Øf^DNA (dsDNA): 0.0037
Øf^free (dsDNA): 0.0024
max (dsDNA): 370 nm
em^DNA (dsDNA): 592 nm
nuclear staining / nuclear localization in live cells [1]: stronger fluorescence backgrounds and spread throughout the cytoplasm

COc1cc(OC)c(OC)cc1C=Cc1cc[n+](C)cc1.[I-] [Compound 4, 1-Methyl-4[2-(2,4,5-trimethoxy-phenyl)-vinyl]pyridinium iodide]
fluorescence intensity change upon addition of DNA (dsDNA): significantly reduced the DNA response

COc1ccc2c(ccc(C=Cc3cccc([N+](=O)[O-])c3)[n+]2C)c1.[I-] [Compound A21-B9]
experimentally determined localization (subscript) [2]: o

COc1ccc2ccccc2c1C=Cc1cc[n+](C)cc1.[I-] [Compound A23-B1]
experimentally determined localization (subscript) [2]: m

COc1ccc2ccccc2c1C=Cc1cccc[n+]1C.[I-] [Compound A23-B3]
experimentally determined localization (subscript) [2]: o

COc1ccc2ccccc2c1C=Cc1c(C)ccc[n+]1C.[I-] [Compound A23-B4]
experimentally determined localization (subscript) [2]: o

C[n+]1ccc(C=Cc2c[nH]c3ccccc23)cc1.[I-] [Compound A24-B1]
experimentally determined localization (subscript) [2]: o

C(=Cc1c[nH]c2ccccc12)c1cc[n+](C23CC4CC(CC(C4)C2)C3)cc1.[Br-] [Compound A24-B2]
representative localization [2]: mitochondria
experimentally determined localization (subscript) [2]: m

Cc1cc[n+](C)c(/C=C/c2c[nH]c3ccccc23)c1.[I-] [Compound A24-B11]
experimentally determined localization (subscript) [2]: m

CN(C)c1ccc(C=Cc2cc[n+](C)cc2)c2ccccc12.[I-] [Compound A27-B1]
experimentally determined localization (subscript) [2]: o

CN(C)c1ccc(C=Cc2ccc3ccccc3[n+]2C)c2ccccc12.[I-] [Compound A27-B8]
experimentally determined localization (subscript) [2]: m

Cc1ccnc(-c2cc(C=CC=Cc3ccccc3)cc[n+]2C)c1.[I-] [Compound A35-B10]
experimentally determined localization (subscript) [2]: o

Cc1cccc(C=CC=Cc2ccccc2)[n+]1C.[I-] [Compound A35-B12]
experimentally determined localization (subscript) [2]: m

Cc1ccc[n+](C)c1C=CC=Cc1ccc(N(C)C)cc1.[I-] [Compound A37-B4]
experimentally determined localization (subscript) [2]: m

Cc1ccnc(-c2cc(C=CC=Cc3ccc(N(C)C)cc3)cc[n+]2C)c1.[I-] [Compound A37-B10]
representative localization [2]: reticular
experimentally determined localization (subscript) [2]: o

COc1cc(OC)c(OC)cc1C=Cc1cc[n+](C23CC4CC(CC(C4)C2)C3)cc1.[Br-] [Compound A38-B2]
experimentally determined localization (subscript) [2]: m

COc1cc(OC)c(OC)cc1C=Cc1cc[n+](C)c2ccccc12.[I-] [Compound A38-B7]
experimentally determined localization (subscript) [2]: o

COc1cc(OC)c(OC)cc1C=Cc1cc[n+](C)c(-c2cc(C)ccn2)c1.[I-] [Compound A38-B10]
experimentally determined localization (subscript) [2]: m

C[n+]1c(C=Cc2ccc3c(c2)OCO3)ccc2ccccc21.[I-] [Compound A39-B8]
experimentally determined localization (subscript) [2]: o

C[n+]1c(C=Cc2ccc(OCc3ccccc3)c(OCc3ccccc3)c2)ccc2ccccc21.[I-] [Compound H12]
representative localization [2]: vesicular

C[n+]1c(C=Cc2ccc3c(c2)Cc2ccccc2-3)ccc2ccccc21.[I-] [Compound H28]
representative localization [2]: nuclear
